Like-named read-outs stand apart in the source and are kept apart here.

The test system of experiment [1] is primed CD8^+ T cells (PBMCs from HLA-A2 donors). The experiment is classed as cell-based, human.
Experiment [2] concerns the target T1, HLA-A2 (Homo sapiens, UniProt P04439, D140Y/D185E/D98H/E176V/E277Q/G131W/G231S/I119V/I121R/I166T/I218V/L300P/L318F/N151K/N90K/P208A/P217A/Q86G/Q94H/R138H/R169H/T345S).
T1 construct: T2 cells, a lymphoma-derived line expressing low amounts of HLA-A2; endogenous in cells; host or cells: T2 cells
Put plainly: HLA–peptide binding assay (surface stabilization of HLA-A2 on T2 cells). To be noted: differences especially at 10^−5 M and 10^−6 M.

Setting [3] is: old donors (65–69 years, n = 8), peptide 1 μM, day 10 after priming, 24 h ELISpot, positive above 50 SFUs per 10^6 cells.

Take “MLDMYSVML [HLA-A2-restricted SARS-CoV-2 peptide from RdRpol, residues 5291–5299]”: in experiment [1] (setting [3]), the “IFN-γ responses in old donors” value is reported as “limited to a single donor”.

In the case of “HLVDFQVTI [HLA-A2-restricted SARS-CoV-2 peptide from ORF6, residues 3–11]”, in experiment [1], the “IFN-γ responses in old donors” value is recorded as “limited to a single donor”.

Regarding “YLQPRTFLL [HLA-A2-restricted SARS-CoV-2 spike-derived peptide, residues 269–277]”, the “Relative affinity for HLA-A2 (binding hierarchy among the peptides)” value in experiment [2] is recorded as “lowest relative affinities”.

Take “SLVKPSFYV [HLA-A2-restricted SARS-CoV-2 peptide from protein E, residues 50–58]”: the “IFN-γ responses in old donors” value in experiment [1] (setting [3]) is “limited to a single donor”.

Turning to “TLDSKTQSL [HLA-A2-restricted SARS-CoV-2 spike-derived peptide, residues 109–117]”, the “Relative affinity for HLA-A2 (binding hierarchy among the peptides)” value in experiment [2] is “lowest relative affinities”. Besides, the “IFN-γ responses in old donors” value in experiment [1] (setting [3]) is “no responses”.

“LLYDANYFL [HLA-A2-restricted SARS-CoV-2 peptide from ORF3a, residues 139–147]”: in experiment [1] (setting [3]), the “IFN-γ responses in old donors” value is given as “limited to a single donor”.

“KIADYNYKL [HLA-A2-restricted SARS-CoV-2 spike-derived peptide, residues 417–425]”: the “IFN-γ responses in old donors” value in experiment [1] (setting [3]) was “no responses”.
